Measurements as given in ChEMBL document CHEMBL4406887, “Design and synthesis of biaryloxazolidinone derivatives containing amide or acrylamide moiety as novel antibacterial agents against Gram-positive bacteria” (Bioorg Med Chem Lett, 2019).
Values after ≈ are worked out from the molar mass of the structure shown.

Columns and labels:
[1] = Stability in artificial gastric acid at 1 mg/ml assessed as residual rate after 2 hrs by HPLC analysis relative to control; format: ADME; details: read-out: Stability
[2] = Stability in artificial gastric acid at 1 mg/ml assessed as residual rate after 3.5 hrs by HPLC analysis relative to control; format: ADME; details: read-out: Stability
Staphylococcus aureus [3] = test: Antibacterial activity against methicillin-sensitive Staphylococcus aureus CLSI-based double dilution method; format: functional
Enterococcus faecium = test: Antibacterial activity against vancomycin-resistant Enterococcus faecium CLSI-based double dilution method; format: functional
[4] = Stability in artificial gastric acid at 1 mg/ml assessed as residual rate after 4 hrs by HPLC analysis relative to control; format: ADME; details: read-out: Stability
[5] = Stability in artificial gastric acid at 1 mg/ml assessed as residual rate after 1 hr by HPLC analysis relative to control; format: ADME; details: read-out: Stability
[6] = Aqueous solubility of compound; format: physicochemical; details: water
Staphylococcus aureus [7] = test: Antibacterial activity against Staphylococcus aureus ATCC 29213 CLSI-based double dilution method; format: functional
[8] = Stability in artificial gastric acid at 1 mg/ml assessed as residual rate after 3 hrs by HPLC analysis relative to control; format: ADME; details: read-out: Stability
Staphylococcus aureus [9] = test: Antibacterial activity against methicillin-resistant Staphylococcus aureus CLSI-based double dilution method; format: functional
[10] = Stability in artificial gastric acid at 1 mg/ml assessed as residual rate after 1.5 hrs by HPLC analysis relative to control; format: ADME; details: read-out: Stability
[11] = Stability in artificial gastric acid at 1 mg/ml assessed as residual rate after 30 mins by HPLC analysis relative to control; format: ADME; details: read-out: Stability
[12] = Stability in artificial gastric acid at 1 mg/ml assessed as residual rate after 2.5 hrs by HPLC analysis relative to control; format: ADME; details: read-out: Stability
[13] = Stability in artificial gastric acid at 1 mg/ml assessed as residual rate measured immediately by HPLC analysis relative to control; format: ADME; details: read-out: Stability
Enterococcus faecalis = test: Antibacterial activity against linezolid-resistant Enterococcus faecalis CLSI-based double dilution method; format: functional

Row | SMILES | remaining at 2 h, 1 mg/ml [1] | remaining at 3.5 h, 1 mg/ml [2] | MIC (Staphylococcus aureus [3]) | MIC (Enterococcus faecium) | remaining at 4 h, 1 mg/ml [4] | remaining at 1 h, 1 mg/ml [5] | solubility [6] | MIC (Staphylococcus aureus [7]) | remaining at 3 h, 1 mg/ml [8] | MIC (Staphylococcus aureus [9]) | remaining at 1.5 h, 1 mg/ml [10] | remaining at 0.5 h, 1 mg/ml [11] | remaining at 2.5 h, 1 mg/ml [12] | remaining at 0 h, 1 mg/ml [13] | MIC (Enterococcus faecalis)
1 | CC(=O)NC[C@H]1CN(c2ccc(-c3ccc(/C=N/N4CCN(C)CC4)cc3)c(F)c2)C(=O)O1 | 16.1% | 0% | 0.0675 µg/mL (≈ 0.149 µM) | 0.0675 µg/mL (≈ 0.149 µM) | 0% | 40.7% | 71 µg/mL (≈ 157 µM) | 0.0675 µg/mL (≈ 0.149 µM) | 0% | 0.0675 µg/mL (≈ 0.149 µM) | 26.3% | 97.5% | 0% | 100% | 0.0675 µg/mL (≈ 0.149 µM)
2 | CC(=O)NC[C@H]1CN(c2ccc(-c3ccc(/C=C/C(=O)N4CCNCC4)cc3)c(F)c2)C(=O)O1 | 91.7% | 89.7% | 0.5 µg/mL (≈ 1.07 µM) | 0.5 µg/mL (≈ 1.07 µM) | 88.7% | 95.2% | 115 µg/mL (≈ 247 µM) | 0.5 µg/mL (≈ 1.07 µM) | 90.9% | 0.5 µg/mL (≈ 1.07 µM) | 94.9% | 94.9% | 91.5% | 100% | 0.25 µg/mL (≈ 0.536 µM)
3 | CC(=O)NC[C@H]1CN(c2ccc(-c3ccc(C(=O)N4CCSCC4)cc3)c(F)c2)C(=O)O1 | – | – | 2 µg/mL (≈ 4.37 µM) | 2 µg/mL (≈ 4.37 µM) | – | – | – | 1 µg/mL (≈ 2.19 µM) | – | 2 µg/mL (≈ 4.37 µM) | – | – | – | – | 4 µg/mL (≈ 8.74 µM)
4 | CC(=O)NC[C@H]1CN(c2ccc(-c3ccc(/C=C/C(=O)N4CCSCC4)cc3)c(F)c2)C(=O)O1 | – | – | 1 µg/mL (≈ 2.07 µM) | 2 µg/mL (≈ 4.14 µM) | – | – | – | 1 µg/mL (≈ 2.07 µM) | – | 2 µg/mL (≈ 4.14 µM) | – | – | – | – | 2 µg/mL (≈ 4.14 µM)
5 | CC(=O)NC[C@H]1CN(c2ccc(-c3ccc(/C=C/C(=O)NC4CCCC4)cc3)c(F)c2)C(=O)O1 | – | – | 1 µg/mL (≈ 2.15 µM) | 1 µg/mL (≈ 2.15 µM) | – | – | – | 1 µg/mL (≈ 2.15 µM) | – | 1 µg/mL (≈ 2.15 µM) | – | – | – | – | 1 µg/mL (≈ 2.15 µM)
6 | CC(=O)NC[C@H]1CN(c2ccc(-c3ccc(/C=C/C(=O)N4CCCCC4)cc3)c(F)c2)C(=O)O1 | – | – | 1 µg/mL (≈ 2.15 µM) | 1 µg/mL (≈ 2.15 µM) | – | – | – | 1 µg/mL (≈ 2.15 µM) | – | 1 µg/mL (≈ 2.15 µM) | – | – | – | – | 1 µg/mL (≈ 2.15 µM)
7 | CC(=O)NC[C@H]1CN(c2ccc(-c3ccc(C(=O)N4CCNCC4)cc3)c(F)c2)C(=O)O1 | – | – | 1 µg/mL (≈ 2.27 µM) | 1 µg/mL (≈ 2.27 µM) | – | – | – | 1 µg/mL (≈ 2.27 µM) | – | 1 µg/mL (≈ 2.27 µM) | – | – | – | – | 1 µg/mL (≈ 2.27 µM)
8 | CC(=O)NC[C@H]1CN(c2ccc(-c3ccc(C(=O)N4CCCCC4)cc3)c(F)c2)C(=O)O1 | – | – | 1 µg/mL (≈ 2.28 µM) | 1 µg/mL (≈ 2.28 µM) | – | – | – | 1 µg/mL (≈ 2.28 µM) | – | 1 µg/mL (≈ 2.28 µM) | – | – | – | – | 1 µg/mL (≈ 2.28 µM)
9 | CC(=O)NC[C@H]1CN(c2ccc(-c3ccc(/C=C/C(=O)N4CCCC4)cc3)c(F)c2)C(=O)O1 | – | – | 1 µg/mL (≈ 2.21 µM) | 1 µg/mL (≈ 2.21 µM) | – | – | – | 1 µg/mL (≈ 2.21 µM) | – | 1 µg/mL (≈ 2.21 µM) | – | – | – | – | 1 µg/mL (≈ 2.21 µM)
10 | CC(=O)NC[C@H]1CN(c2ccc(-c3ccc(/C=C/C(=O)N4CCC(C)CC4)cc3)c(F)c2)C(=O)O1 | – | – | 1 µg/mL (≈ 2.09 µM) | 1 µg/mL (≈ 2.09 µM) | – | – | – | 1 µg/mL (≈ 2.09 µM) | – | 1 µg/mL (≈ 2.09 µM) | – | – | – | – | 1 µg/mL (≈ 2.09 µM)
11 | CC(=O)NC[C@H]1CN(c2ccc(-c3ccc(C(=O)NC4CC4)cc3)c(F)c2)C(=O)O1 | – | – | 1 µg/mL (≈ 2.43 µM) | 1 µg/mL (≈ 2.43 µM) | – | – | – | 1 µg/mL (≈ 2.43 µM) | – | 1 µg/mL (≈ 2.43 µM) | – | – | – | – | 1 µg/mL (≈ 2.43 µM)
12 | CC(=O)NC[C@H]1CN(c2ccc(-c3ccc(C(=O)N4CCOCC4)cc3)c(F)c2)C(=O)O1 | – | – | 2 µg/mL (≈ 4.53 µM) | 2 µg/mL (≈ 4.53 µM) | – | – | – | 2 µg/mL (≈ 4.53 µM) | – | 2 µg/mL (≈ 4.53 µM) | – | – | – | – | 2 µg/mL (≈ 4.53 µM)
13 | CC(=O)NC[C@H]1CN(c2ccc(-c3ccc(/C=C/C(=O)N4CCOCC4)cc3)c(F)c2)C(=O)O1 | – | – | 2 µg/mL (≈ 4.28 µM) | 2 µg/mL (≈ 4.28 µM) | – | – | – | 2 µg/mL (≈ 4.28 µM) | – | 2 µg/mL (≈ 4.28 µM) | – | – | – | – | 4 µg/mL (≈ 8.56 µM)
14 | CC(=O)NC[C@H]1CN(c2ccc(-c3ccc(C(=O)N4CCCC4)cc3)c(F)c2)C(=O)O1 | – | – | 1 µg/mL (≈ 2.35 µM) | 2 µg/mL (≈ 4.7 µM) | – | – | – | 1 µg/mL (≈ 2.35 µM) | – | 1 µg/mL (≈ 2.35 µM) | – | – | – | – | 2 µg/mL (≈ 4.7 µM)
15 | CC(=O)NC[C@H]1CN(c2ccc(-c3ccc(/C=C/C(=O)NC4CC4)cc3)c(F)c2)C(=O)O1 | – | – | 1 µg/mL (≈ 2.29 µM) | 1 µg/mL (≈ 2.29 µM) | – | – | – | 1 µg/mL (≈ 2.29 µM) | – | 1 µg/mL (≈ 2.29 µM) | – | – | – | – | 1 µg/mL (≈ 2.29 µM)
16 | CC(=O)NC[C@H]1CN(c2ccc(-c3ccc(C(=O)NC4CCCC4)cc3)c(F)c2)C(=O)O1 | – | – | 1 µg/mL (≈ 2.28 µM) | 1 µg/mL (≈ 2.28 µM) | – | – | – | 1 µg/mL (≈ 2.28 µM) | – | 1 µg/mL (≈ 2.28 µM) | – | – | – | – | 1 µg/mL (≈ 2.28 µM)
17 | CC(=O)NC[C@H]1CN(c2ccc(N3CCOCC3)c(F)c2)C(=O)O1 [LINEZOLID] | – | – | 1 µg/mL (≈ 2.96 µM) | 2 µg/mL (≈ 5.93 µM) | – | – | – | 1 µg/mL (≈ 2.96 µM) | – | 1 µg/mL (≈ 2.96 µM) | – | – | – | – | > 16 µg/mL
18 | CC(=O)NC[C@H]1CN(c2ccc(-c3ccc(CNCc4cnn[nH]4)cc3)c(F)c2)C(=O)O1 [RADEZOLID] | – | – | 0.5 µg/mL (≈ 1.14 µM) | 0.5 µg/mL (≈ 1.14 µM) | – | – | – | 0.5 µg/mL (≈ 1.14 µM) | – | 0.5 µg/mL (≈ 1.14 µM) | – | – | – | – | 0.5 µg/mL (≈ 1.14 µM)
